US11926625B2, “HPK1 antagonists and uses thereof” (Nimbus Saturn, Inc., priority 2021, dated 2024)

target: T1, HPK1 (Homo sapiens, UniProt Q92918); assay: HPK1 biochemical enzyme assay (microfluidic mobility shift, Caliper); conditions: 1.5 nM HPK1 (Invitrogen), 1 mM ATP, 30 min preincubation, 60 min at RT, top concentration 3 μM; read-out: HPK1 1000UMATP caliper IC50
T1 construct: purchased Invitrogen
Protocol: Example 20. HPK1 Biochemical Enzyme Assay
HPK1 biochemical enzyme assay: HPK1 enzyme inhibition was measured using a microfluidic mobility shift assay. Reactions were performed in a 384-well plate, containing 1.5 nM HPK1 (Invitrogen), in assay buffer (Cama Biosciences; pH 7.4). Test compounds were titrated in ten point curves (top final assay concentration 3 μM), and preincubated with enzyme/substrate mix for 30 min prior to initiation of the reaction by addition of ATP (1 mM final concentration) and substrate (1 μM final concentration; Carna Biosciences) diluted in assay buffer supplemented by MgCl2 (final assay concentration of 5 mM). Following 60 min incubation at RT, the reaction was terminated by addition of 60 μl/well termination buffer (Carna Biosciences) and signal determination using a Caliper EZ Reader (Perkin Elmer, UK).

T1 sequence (Q92918 whole entry): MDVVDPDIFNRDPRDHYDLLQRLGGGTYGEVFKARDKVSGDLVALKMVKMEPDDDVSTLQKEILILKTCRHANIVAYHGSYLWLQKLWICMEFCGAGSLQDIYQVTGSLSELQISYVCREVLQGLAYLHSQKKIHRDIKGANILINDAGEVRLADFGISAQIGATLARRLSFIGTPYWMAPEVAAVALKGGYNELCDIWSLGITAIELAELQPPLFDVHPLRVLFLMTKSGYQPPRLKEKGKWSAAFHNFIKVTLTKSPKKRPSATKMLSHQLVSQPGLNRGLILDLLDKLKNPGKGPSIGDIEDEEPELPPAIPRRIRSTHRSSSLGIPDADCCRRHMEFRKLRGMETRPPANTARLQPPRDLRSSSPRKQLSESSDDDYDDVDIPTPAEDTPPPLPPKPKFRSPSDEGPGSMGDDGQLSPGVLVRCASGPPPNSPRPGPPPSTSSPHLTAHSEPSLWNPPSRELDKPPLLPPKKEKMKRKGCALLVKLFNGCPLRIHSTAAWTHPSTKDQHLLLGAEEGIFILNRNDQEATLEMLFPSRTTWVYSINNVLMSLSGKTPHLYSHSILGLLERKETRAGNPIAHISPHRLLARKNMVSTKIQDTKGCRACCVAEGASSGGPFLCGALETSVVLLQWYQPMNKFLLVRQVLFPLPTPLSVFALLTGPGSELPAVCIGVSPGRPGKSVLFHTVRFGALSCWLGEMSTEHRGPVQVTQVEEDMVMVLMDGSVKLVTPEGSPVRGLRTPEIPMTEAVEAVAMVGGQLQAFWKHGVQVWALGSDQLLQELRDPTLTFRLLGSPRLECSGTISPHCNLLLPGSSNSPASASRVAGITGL

Structure (SMILES)	IC50 [nM]
CN1CCN(c2ccc(Nc3ccc(-c4ccnc(N5CCC(C#N)CC5)c4)c4c3C(=O)NC4)nc2)CC1 [Compound I-37, 1-[4-[7-[[5-(4-methylpiperazin-1-yl)-2-pyridyl]amino]-1-oxo-isoindolin-4-yl]-2-pyridyl] piperidine-4-carbonitrile]	< 1000
CN1CCN(c2ccc(Nc3ccc(-c4cc(N5CC6CCC(C5)O6)ncn4)c4c3C(=O)NC4)nc2)CC1 [Compound I-61, 4-(6-(8-oxa-3-azabicyclo [3.2.1]octan-3-yl)pyrimidin-4-yl)-7-((5-(4-methylpiperazin-1-yl)pyridin-2-yl)amino) isoindolin-1-one]	1000 to 5000
O=C1NCc2c(C3CCOCC3)ncc(Nc3ccc(N4CCNCC4)cn3)c21 [Compound I-2, 7-[(5-piperazin-1-yl-2-pyridyl)amino]-4-tetrahydropyran-4-yl-2,3-dihydropyrrolo [3,4-c]pyridin-1-one]	1000 to 5000
CC(=O)N1CCN(c2cc(-c3ccc(Nc4ccc(N5CCN(C)CC5)cn4)c4c3CNC4=O)ccn2)CC1 [Compound I-43, 4-[2-(4-acetylpiperazin-1-yl)-4-pyridyl]-7-[[5-(4-methylpiperazin-1-yl)-2-pyridyl]amino] isoindolin-1-one]	1000 to 5000
Cc1ncc(-c2ccc(Nc3ccc(N4CCNCC4)cn3)c3c2CNC3=O)n1C [Compound I-72, 4-(1,2-dimethyl-1H-imidazol-5-yl)-7-((5-(piperazin-1-yl)pyridin-2-yl)amino) isoindolin-1-one]	< 1000
CCc1cnc(N)nc1-c1ccc(Nc2ccc(N3CCN(C)CC3)cn2)c2c1CNC2=O [Compound I-86, 4-(2-amino-5-ethylpyrimidin-4-yl)-7-((5-(4-methylpiperazin-1-yl)pyridin-2-yl)amino) isoindolin-1-one]	1000 to 5000
CN1CCN(c2ccc(Nc3ccc(-c4ccnc(C5(C#N)CCOCC5)c4)c4c3C(=O)NC4)nc2)CC1 [Compound I-46, 4-[4-[7-[[5-(4-methylpiperazin-1-yl)-2-pyridyl]amino]-1-oxo-isoindolin-4-yl]-2-pyridyl] tetrahydropyran-4-carbonitrile]	< 1000
O=C1NCc2c(-c3ccncc3)ncc(Nc3ccc(N4CCC(O)CC4)cn3)c21 [Compound I-13, 7-[[5-(4-hydroxy-1-piperidyl)-2-pyridyl]amino]-4-(4-pyridyl)-2,3-dihydropyrrolo [3,4-c]pyridin-1-one]	1000 to 5000
CN1CCN(c2ccc(Nc3cnc(-c4ccncc4)c4c3C(=O)NC4)nc2)CC1 [Compound I-15, 7-[[5-(4-methylpiperazin-1-yl)-2-pyridyl]amino]-4-(4-pyridyl)-2,3-dihydropyrrolo [3,4-c]pyridin-1-one]	1000 to 5000
CN1CCN(c2ccc(Nc3ccc(-c4ccnc(C(C)(C)C#N)c4)c4c3C(=O)NC4)nc2)CC1 [Compound I-35, 2-methyl-2-[4-[7-[[5-(4-methylpiperazin-1-yl)-2-pyridyl]amino]-1-oxo-isoindolin-4-yl]-2-pyridyl] propanenitrile]	< 1000
CN1CCN(c2ccc(Nc3ccc(-c4ccnc(N5CC6CCC(C5)O6)c4)c4c3C(=O)NC4)nc2)CC1 [Compound I-41]	1000 to 5000
CNc1nccc(-c2ccc(Nc3ccc(N4CCN(C)CC4)cn3)c3c2CNC3=O)n1 [Compound I-49, 4-[2-(methylamino)pyrimidin-4-yl]-7-[[5-(4-methylpiperazin-1-yl)-2-pyridyl]amino] isoindolin-1-one]	< 1000
CCc1cnc(C)cc1-c1ncc(Nc2ccc(N3CCNCC3)cn2)c2c1CNC2=O [Compound I-21, 4-(5-ethyl-2-methyl-4-pyridyl)-7-[(5-piperazin-1-yl-2-pyridyl)amino]-2,3-dihydropyrrolo [3,4-c]pyridin-1-one]	1000 to 5000
CN1CCN(c2ccc(Nc3ccc(-c4ccnnc4)c4c3C(=O)NC4)nc2)CC1 [Compound I-59, 7-((5-(4-methylpiperazin-1-yl)pyridin-2-yl)amino)-4-(pyridazin-4-yl)isoindolin-1-one]	< 1000
CN1CCN(c2ccc(Nc3ccc(-c4ccnc(C#CC5CCCCC5)c4)c4c3C(=O)NC4)nc2)CC1 [Compound I-63, 4-(2-(cyclohexylethynyl)pyridin-4-yl)-7-((5-(4-methylpiperazin-1-yl)pyridin-2-yl)amino) isoindolin-1-one]	< 1000
CN1CCN(c2ccc(Nc3ccc(-c4ccnc(C5CCCOC5)c4)c4c3C(=O)NC4)nc2)CC1 (centres unmarked) [Compound I-66, 7-((5-(4-methylpiperazin-1-yl)pyridin-2-yl)amino)-4-(2-(tetrahydro-2H-pyran-3-yl)pyridin-4-yl)isoindolin-1-one]	1000 to 5000
Cc1cc(-c2ncc(Nc3ccc(N4CCNCC4)cn3)c3c2CNC3=O)ccn1 [Compound I-9, 4-(2-methyl-4-pyridyl)-7-[(5-piperazin-1-yl-2-pyridyl)amino]-2,3-dihydropyrrolo [3,4-c]pyridin-1-one]	1000 to 5000
O=C1NCc2c(-c3ccncc3)ncc(Nc3ccc(N4CCNCC4)cn3)c21 [Compound I-1, 7-[(5-piperazin-1-yl-2-pyridyl)amino]-4-(4-pyridyl)-2,3-dihydropyrrolo [3,4-c]pyridin-1-one]	< 1000
CN1CCN(c2ccc(Nc3ccc(-c4cc(C5CCOCC5)ncn4)c4c3C(=O)NC4)nc2)CC1 [Compound I-69]	< 1000
CN1CCN(c2ccc(Nc3cnc(-c4cncn4C)c4c3C(=O)NC4)nc2)CC1 [Compound I-73, 4-(1-methyl-1H-imidazol-5-yl)-7-((5-(4-methylpiperazin-1-yl)pyridin-2-yl)amino)-2,3-dihydro-1H-pyrrolo[3,4-c]pyridin-1-one]	< 1000

Now from value to compound:

IC50 [nM]	Structure (SMILES)
< 1000	CN1CCN(c2ccc(Nc3ccc(-c4cccnc4)c4c3C(=O)NC4)nc2)CC1 [Compound I-30, 7-[[5-(4-methylpiperazin-1-yl)-2-pyridyl]amino]-4-(3-pyridyl) isoindolin-1-one]
< 1000	O=C1NCc2c(-c3ccncc3)ccc(Nc3ccc(N4CCNCC4)cn3)c21 [Compound I-27, 7-[(5-piperazin-1-yl-2-pyridyl)amino]-4-(4-pyridyl) isoindolin-1-one]
< 1000	CN1CCN(c2ccc(Nc3ccc(-c4ccnc(OCC(=O)N5CCCCC5)c4)c4c3C(=O)NC4)nc2)CC1 [Compound I-39, 7-[[5-(4-methylpiperazin-1-yl)-2-pyridyl]amino]-4-[2-[2-oxo-2-(1-piperidyl)ethoxy]-4-pyridyl] isoindolin-1-one]
1000 to 5000	CN1CCN(c2ccc(Nc3ccc(-c4ccnc(C5CCOCC5)c4)c4c3C(=O)NC4)nc2)CC1 [Compound I-44, 7-[[5-(4-methylpiperazin-1-yl)-2-pyridyl]amino]-4-(2-tetrahydropyran-4-yl-4-pyridyl) isoindolin-1-one]
< 1000	CN1CCN(c2ccc(Nc3ccc(-c4ccccc4)c4c3C(=O)NC4)nc2)CC1 [Compound I-29, 7-[[5-(4-methylpiperazin-1-yl)-2-pyridyl]amino]-4-phenyl-isoindolin-1-one]
< 1000	CN1CCN(c2ccc(Nc3ccc(-c4ccncn4)c4c3C(=O)NC4)nc2)CC1 [Compound I-45, 7-[[5-(4-methylpiperazin-1-yl)-2-pyridyl]amino]-4-pyrimidin-4-yl-isoindolin-1-one]
< 1000	CNc1cc(-c2ccc(Nc3ccc(N4CCN(C)CC4)cn3)c3c2CNC3=O)ccn1 [Compound I-52, 4-[2-(methylamino)-4-pyridyl]-7-[[5-(4-methylpiperazin-1-yl)-2-pyridyl]amino] isoindolin-1-one]
1000 to 5000	O=C1NCc2c(C3CC3)ncc(Nc3ccc(N4CCNCC4)cn3)c21 [Compound I-12, 4-cyclopropyl-7-[(5-piperazin-1-yl-2-pyridyl)amino]-2,3-dihydropyrrolo [3,4-c]pyridin-1-one]
< 1000	CNC1CCN(c2ccc(Nc3ccc(-c4ccncc4)c4c3C(=O)NC4)nc2)CC1 [Compound I-53, 7-[[5-[4-(methylamino)-1-piperidyl]-2-pyridyl]amino]-4-(4-pyridyl) isoindolin-1-one]
1000 to 5000	CN1CCN(c2ccc(Nc3ccc(-c4ccncc4C4CCOCC4)c4c3C(=O)NC4)nc2)CC1 [Compound I-70, 7-((5-(4-methylpiperazin-1-yl)pyridin-2-yl)amino)-4-(3-(tetrahydro-2H-pyran-4-yl)pyridin-4-yl)isoindolin-1-one]
< 1000	CN1CCN(c2ccc(Nc3ccc(-c4ccnc(C#CC5CCCO5)c4)c4c3C(=O)NC4)nc2)CC1 (centres unmarked) [Compound I-68]
1000 to 5000	CN1CCN(c2ccc(Nc3ccc(-c4ccnc(C5CCCCO5)c4)c4c3C(=O)NC4)nc2)CC1 (centres unmarked) [Compound I-65, 7-((5-(4-methylpiperazin-1-yl)pyridin-2-yl)amino)-4-(2-(tetrahydro 2H-pyran-2-yl)pyridin-4-yl)isoindolin-1-one]
< 1000	CN1CCN(c2ccc(Nc3ccc(-c4ccnc(OCC5CCC5)c4)c4c3C(=O)NC4)nc2)CC1 [Compound I-47, 4-[2-(cyclobutylmethoxy)-4-pyridyl]-7-[[5-(4-methylpiperazin-1-yl)-2-pyridyl]amino] isoindolin-1-one]
1000 to 5000	CN1CCN(c2ccc(Nc3ccc(-c4ccnc(N5CCC6(CCOCC6)CC5)c4)c4c3C(=O)NC4)nc2)CC1 [Compound I-33, 7-[[5-(4-methylpiperazin-1-yl)-2-pyridyl]amino]-4-[2-(3-oxa-9-azaspiro[5. 5]undecan-9-yl)-4-pyridyl] isoindolin-1-one]
< 1000	CN1CCN(c2ccc(Nc3ccc(-c4ccnc(C#C[C@H]5CCCO5)c4)c4c3C(=O)NC4)nc2)CC1 [Compound I-85]
